# Measured values reported in patent publication US9610292B2, “Uses for 4,17β-dihydroxyandrost-4-ene-3-one” (MaBel GmbH, priority 2006, dated 2017).
# Legend:
# MCF-7 cells = test: Inhibition of MCF-7 cell proliferation (counting of vital cells); type: cell-based, human; conditions: 10^-7 M, 10^-8 M and 10^-9 M; cell counting after 3, 6 and 9 days; compared with DHT and control
# Procedure: MCF-7 cells were grown in RPMI 1640 medium at 37° C. to a cell number of about 1*10^5 cells/ml. Then, in quadruple identical MCF-7 cell samples, there were added either dihydrotestosterone (DHT) or 4-hydroxytestosterone (4-OHT), to obtain different concentrations thereof, namely 10^−7 M, 10^−8 M or 10^−9 M, and further growth of cells were determined by counting of vital cells. During the course of incubation at 37° C., cell counting were performed after 3, 6 and 9 days. For control, growth of MCF-7 cells were determined without addition of an active agent.
# The results on an inhibition of MCF-7 cell proliferation are shown in FIGS. 1A, 1B and 1C for the compound concentrations of 10^−7 M, 10^−8 M and 10^−9 M of either DHT or 4-OHT, respectively, and compared with the control.
# [1] = system: malign breast carcinoma (C. mammae); test: Double blind clinical test, topical cream once a day for 3 months, patients with malign breast carcinoma; type: in vivo, human; conditions: for Clinical Remission: daily topical cream, 3 months
# Procedure: Double blind clinical tests were conducted with a group of 10 female patients. In this clinical testing, particular attention was paid to hormone receptor statuses of patients' target breast cancer tissue regarding progesterone receptor (PR) and in particular regarding estrogen receptor (ER); The cancers of the patients were assumed to be predominantly androgen receptor (AR) positive. Among this group, six patients had histologically ascertained malign breast carcinoma (C. mammae). […] In a sixth patient, the presence of a malign breast carcinoma was ascertained, but the amount of cancer tissue was too low to determine receptor status.
# (§1) All 10 female patients were topically and locally treated using 4-hydroxytestosterone as active agent, by administering of a cream as described in Example 2 locally to target skin portions of the breasts. After continuing daily topical administration once a day during an administration period of 3 months, clinical investigations on therapeutic effects were performed.
# The results of the 6 patients having malign breast carcinoma are shown in the following Table 1, together with the receptor status determined for patient nos. 1 to 5.
# [2] = system: normal or mastopathic breast tissue; test: Double blind clinical test, topical cream, patients with non-malign disease states; type: in vivo, human; conditions: 4 patients having non-malign disease states, topical administration
# Procedure: as §1
smiles,measurement,setting,value
"C[C@]12CC[C@H]3[C@@H](CCC4=C(O)C(=O)CC[C@@]43C)[C@@H]1CC[C@@H]2O [4-hydroxytestosterone, 4,17β-dihydroxyandrost-4-ene-3-one]",inhibitory effect on MCF-7 cell proliferation,MCF-7 cells,significantly enhanced inhibitory effect
same,Clinical Remission,"[1]; Patient # 1, ER 0, PR 0, Her2neu 0",yes
same,Clinical Remission,"[1]; Patient # 3, ER 0, PR 0, Her2neu 0",yes
same,Clinical Remission,"[1]; Patient # 6, receptor status unknown",yes
same,efficacy in shrinking cancerous tissues,"[1]; clinical study overall, including ER negative cancers",excellent efficacy
same,tissue reduction of normal or mastopathic appearing tissues,[2],clear tendency for tissue reduction
